Assay results as given in patent US20260355196A1, “INHIBITORS AND DEGRADERS OF PIP4K PROTEIN” (Larkspur Biosciences, Inc., priority 2023, published 2026).

Target: T1, PIP4K2C (Homo sapiens, UniProt Q8TBX8)
T1 sequence (Q8TBX8 1-421): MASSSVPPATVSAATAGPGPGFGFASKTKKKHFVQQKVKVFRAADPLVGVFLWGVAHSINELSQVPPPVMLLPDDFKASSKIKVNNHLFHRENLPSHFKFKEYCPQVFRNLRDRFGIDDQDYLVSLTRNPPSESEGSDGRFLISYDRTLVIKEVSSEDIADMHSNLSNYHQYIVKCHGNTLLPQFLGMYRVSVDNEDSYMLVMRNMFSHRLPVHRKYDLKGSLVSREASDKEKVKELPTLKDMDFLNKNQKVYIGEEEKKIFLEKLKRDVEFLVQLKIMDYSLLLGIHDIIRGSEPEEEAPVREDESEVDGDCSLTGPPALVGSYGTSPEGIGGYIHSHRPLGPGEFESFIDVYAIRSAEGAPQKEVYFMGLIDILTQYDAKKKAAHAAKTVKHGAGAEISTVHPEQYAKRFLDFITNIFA
Assay: HiBiT PIP4K2C degradation assay in MOLT-4 cells (endogenous PIP4K2C C-terminally tagged with HiBiT)
Type: cell-based
Set-up: untagged in primary human PBMCs and monocyte-derived dendritic cells
Settings: 24 hours incubation, MOLT-4, top concentration 10 micromolar; read-out: HiBIT-degradation MOLT4 PIP4k2C 24 hours DC50
In short: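 DC50 derived by Hill fit of luminescence from Nano-Glo HiBiT lytic detection. Cells were HiBiT knock-in MOLT-4 (C-terminal tag on endogenous PIP4K2C), exposed 6 h or 24 h at 37 C to compound, top concentration 10 micromolar, 3-fold steps, 10 points, duplicates.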

| SMILES | DC50 [µM] |
| --- | --- |
| Cn1nc(C2CCC(=O)NC2=O)c2ccc(C3CCN(C[C@H]4CC[C@H](NC(=O)[C@H]5CCC[C@@H](Nc6ncc(F)c(-c7cccc(-n8ccccc8=O)c7)n6)C5)CC4)CC3)cc21 (relative stereo) [Compound 307, cis-trans-N-(4-((4-(3-(2,6-dioxopiperidin-3-yl)-1-methyl-1H-indazol-6-yl)piperidin-1-yl)methyl)cyclohexyl)-3-((5-fluoro-4-(3-(2-oxopyridin-1(2H)-yl)phenyl)pyrimidin-2-yl)amino)cyclohexane-1-carboxamide] | 1 to 5 |
| O=C1CCC(n2c(=O)oc3cc(N4CCN(CCC5CCN(C(=O)[C@@H]6CCC[C@H](Nc7ncc(F)c(-c8cccc(-n9ccccc9=O)c8)n7)C6)CC5)CC4)ccc32)C(=O)N1 (relative stereo) [Compound 342, cis-3-(6-(4-(2-(1-(3-((5-fluoro-4-(3-(2-oxopyridin-1(2H)-yl)phenyl)pyrimidin-2-yl)amino)cyclohexane-1-carbonyl)piperidin-4-yl)ethyl)piperazin-1-yl)-2-oxobenzo[d]oxazol-3 (2H)-yl)piperidine-2,6-dione] | < 0.5 |
| O=C1CCC(n2c(=O)oc3cc(C4CCN(CCC5(O)CCN(C(=O)[C@H]6CCC[C@@H](Nc7ncc(F)c(-c8cccc(-n9ccccc9=O)c8)n7)C6)CC5)CC4)ccc32)C(=O)N1 (relative stereo) [Compound 347, cis-3-(6-(1-(2-(1-(3-((5-fluoro-4-(3-(2-oxopyridin-1(2H)-yl)phenyl)pyrimidin-2-yl)amino)cyclohexane-1-carbonyl)-4-hydroxypiperidin-4-yl)ethyl)piperidin-4-yl)-2-oxobenzo[d]oxazol-3 (2H)-yl)piperidine-2,6-dione] | < 0.5 |
| O=C1CCC(Nc2ccc(C3CCN(CCC4(O)CCN(C(=O)[C@H]5CCC[C@@H](Nc6ncc(F)c(-c7cccc(-n8ccccc8=O)c7)n6)C5)CC4)CC3)c(F)c2)C(=O)N1 (relative stereo) [Compound 348, cis-3-((3-fluoro-4-(1-(2-(1-(3-((5-fluoro-4-(3-(2-oxopyridin-1(2H)-yl)phenyl)pyrimidin-2-yl)amino)cyclohexane-1-carbonyl)-4-hydroxypiperidin-4-yl)ethyl)piperidin-4-yl)phenyl)amino)piperidine-2,6-dione] | < 0.5 |
| O=C1CCC(n2c(=O)oc3cc(C4CCN([C@H]5CC[C@H](CNC(=O)[C@H]6CCC[C@@H](Nc7ncc(F)c(-c8cccc(-n9ccccc9=O)c8)n7)C6)CC5)CC4)ccc32)C(=O)N1 (relative stereo) [Compound 349, cis-trans-N-((4-(4-(3-(2,6-dioxopiperidin-3-yl)-2-oxo-2,3-dihydrobenzo[d]oxazol-6-yl)piperidin-1-yl)cyclohexyl)methyl)-3-((5-fluoro-4-(3-(2-oxopyridin-1(2H)-yl)phenyl)pyrimidin-2-yl)amino)cyclohexane-1-carboxamide] | < 0.5 |
| O=C1CCC(Nc2ccc(N3CCN([C@H]4CC[C@H](CNC(=O)[C@H]5CCC[C@@H](Nc6ncc(F)c(-c7cccc(-n8ccccc8=O)c7)n6)C5)CC4)CC3)c(F)c2)C(=O)N1 (relative stereo) [Compound 352, cis-N-((trans-4-(4-(4-((2,6-dioxopiperidin-3-yl)amino)-2-fluorophenyl)piperazin-1-yl)cyclohexyl)methyl)-3-((5-fluoro-4-(3-(2-oxopyridin-1(2H)-yl)phenyl)pyrimidin-2-yl)amino)cyclohexane-1-carboxamide] | < 0.5 |
| O=C1CCC(Nc2ccc(N3CCC(N4CCC(CNC(=O)[C@H]5CCC[C@@H](Nc6ncc(F)c(-c7cccc(-n8ccccc8=O)c7)n6)C5)CC4)CC3)c(F)c2)C(=O)N1 (relative stereo) [Compound 361, cis-N-((1′-(4-((2,6-dioxopiperidin-3-yl)amino)-2-fluorophenyl)-[1,4′-bipiperidin]-4-yl)methyl)-3-((5-fluoro-4-(3-(2-oxopyridin-1(2H)-yl)phenyl)pyrimidin-2-yl)amino)cyclohexane-1-carboxamide] | < 0.5 |
| O=C1CCC(Nc2ccc(N3CCC(CN4CCC(NC(=O)[C@H]5CC[C@H](Nc6ncc(F)c(-c7cccc(-n8ccccc8=O)c7)n6)CC5)CC4)CC3)c(F)c2)C(=O)N1 (relative stereo) [Compound 375, trans-N-(1-((1-(4-((2,6-dioxopiperidin-3-yl)amino)-2-fluorophenyl)piperidin-4-yl)methyl)piperidin-4-yl)-4-((5-fluoro-4-(3-(2-oxopyridin-1(2H)-yl)phenyl)pyrimidin-2-yl)amino)cyclohexane-1-carboxamide] | < 0.5 |

Second part, the compound after the results:

| DC50 [µM] | SMILES |
| --- | --- |
| < 0.5 | O=C1CCC(n2c(=O)oc3cc(N4CCC(N5CCC(CNC(=O)[C@H]6CCC[C@@H](Nc7ncc(F)c(-c8cccc(-n9ccccc9=O)c8)n7)C6)CC5)CC4)ccc32)C(=O)N1 (relative stereo) [Compound 299, cis-N-((1′-(3-(2,6-dioxopiperidin-3-yl)-2-oxo-2,3-dihydrobenzo[d]oxazol-6-yl)-[1,4′-bipiperidin]-4-yl)methyl)-3-((5-fluoro-4-(3-(2-oxopyridin-1(2H)-yl)phenyl)pyrimidin-2-yl)amino)cyclohexane-1-carboxamide] |
| < 0.5 | O=C1CCC(n2c(=O)oc3cc(C4CCN(C[C@H]5CC[C@H](NC(=O)[C@H]6CCC[C@@H](Nc7ncc(F)c(-c8cccc(-n9ccccc9=O)c8)n7)C6)CC5)CC4)ccc32)C(=O)N1 (relative stereo) [Compound 306, cis-trans-N-(4-((4-(3-(2,6-dioxopiperidin-3-yl)-2-oxo-2,3-dihydrobenzo[d]oxazol-6-yl)piperidin-1-yl)methyl)cyclohexyl)-3-((5-fluoro-4-(3-(2-oxopyridin-1(2H)-yl)phenyl)pyrimidin-2-yl)amino)cyclohexane-1-carboxamide] |
| < 0.5 | O=C1CCC(n2c(=O)oc3cc(N4CCC(CN5CCC(NC(=O)[C@H]6CCC[C@@H](Nc7ncc(F)c(-c8cccc(-n9ccccc9=O)c8)n7)C6)CC5)CC4)ccc32)C(=O)N1 (relative stereo) [Compound 320, cis-N-(1-((1-(3-(2,6-dioxopiperidin-3-yl)-2-oxo-2,3-dihydrobenzo[d]oxazol-6-yl)piperidin-4-yl)methyl)piperidin-4-yl)-3-((5-fluoro-4-(3-(2-oxopyridin-1(2H)-yl)phenyl)pyrimidin-2-yl)amino)cyclohexane-1-carboxamide] |
| < 0.5 | Cn1nc(C2CCC(=O)NC2=O)c2ccc(N3CCC(CN4CCC(NC(=O)[C@H]5CCC[C@@H](Nc6ncc(F)c(-c7cccc(-n8ccccc8=O)c7)n6)C5)CC4)CC3)cc21 (relative stereo) [Compound 332, cis-N-(1-((1-(3-(2,6-dioxopiperidin-3-yl)-1-methyl-1H-indazol-6-yl)piperidin-4-yl)methyl)piperidin-4-yl)-3-((5-fluoro-4-(3-(2-oxopyridin-1(2H)-yl)phenyl)pyrimidin-2-yl)amino)cyclohexane-1-carboxamide] |
| < 0.5 | Cn1nc(C2CCC(=O)NC2=O)c2ccc(N3CCC(N4CCC(CNC(=O)[C@H]5CCC[C@@H](Nc6ncc(F)c(-c7cccc(-n8ccccc8=O)c7)n6)C5)CC4)CC3)cc21 (relative stereo) [Compound 333, cis-N-((1′-(3-(2,6-dioxopiperidin-3-yl)-1-methyl-1H-indazol-6-yl)-[1,4′-bipiperidin]-4-yl)methyl)-3-((5-fluoro-4-(3-(2-oxopyridin-1(2H)-yl)phenyl)pyrimidin-2-yl)amino)cyclohexane-1-carboxamide] |
| < 0.5 | O=C1CCC(Nc2ccc(N3CCC(CN4CCC(NC(=O)[C@H]5CCC[C@@H](Nc6ncc(F)c(-c7cccc(-n8ccccc8=O)c7)n6)C5)CC4)CC3)c(F)c2)C(=O)N1 (relative stereo) [Compound 336, cis-N-(1-((1-(4-((2,6-dioxopiperidin-3-yl)amino)-2-fluorophenyl)piperidin-4-yl)methyl)piperidin-4-yl)-3-((5-fluoro-4-(3-(2-oxopyridin-1(2H)-yl)phenyl)pyrimidin-2-yl)amino)cyclohexane-1-carboxamide] |
| < 0.5 | O=C1CCC(Nc2ccc(C3CCN([C@H]4CC[C@@H](CNC(=O)[C@H]5CCC[C@@H](Nc6ncc(F)c(-c7cccc(-n8ccccc8=O)c7)n6)C5)CC4)CC3)c(F)c2)C(=O)N1 (relative stereo) [Compound 337, cis-N-((cis-4-(4-(4-((2,6-dioxopiperidin-3-yl)amino)-2-fluorophenyl)piperidin-1-yl)cyclohexyl)methyl)-3-((5-fluoro-4-(3-(2-oxopyridin-1(2H)-yl)phenyl)pyrimidin-2-yl)amino)cyclohexane-1-carboxamide] |
| < 0.5 | Cn1c(=O)n(C2CCC(=O)NC2=O)c2ccc(C3CCN(CC[C@H]4CC[C@H](C(=O)N5CCC(Nc6ncc(Cl)c(-c7cccc(-c8ccc(F)cc8)c7)n6)CC5)CC4)CC3)cc21 (relative stereo) [Compound 338, trans-3-(5-(1-(2-(4-(4-((5-chloro-4-(4′-fluoro-[1,1′-biphenyl]-3-yl)pyrimidin-2-yl)amino)piperidine-1-carbonyl)cyclohexyl)ethyl)piperidin-4-yl)-3-methyl-2-oxo-2,3-dihydro-1H-benzo[d]imidazol-1-yl)piperidine-2,6-dione] |
